| melting point [°C] | Structure (SMILES) |
| --- | --- |
| 112 to 113 | COP(=O)(CC1(O)O[C@H](COCc2ccccc2)[C@@H](OCc2ccccc2)[C@H](OCc2ccccc2)[C@H]1OCc1ccccc1)OC (stereo partly specified) |
| 311 to 312 | O=C(O)c1cc(-n2c(=O)cc(C(F)(F)F)[nH]c2=O)ccc1Cl |
| 162 to 166 | O=C(NCCCN1CCOCC1)Nc1nc2ccc(OCc3c(Cl)cccc3Cl)cc2s1 |
| 213 to 214 | Cc1cccnc1C(CO)COc1ccc(CC2SC(=N)NC2=O)cc1 (stereo unspecified) |
| 148 to 150 | COc1cc2c(cc1OC)C1C(Cl)=NC=NC1N2 (stereo unspecified) |
| 114 to 116 | CN1CCCCC1CCc1ccccc1NC(=O)c1ccoc1 (stereo unspecified) |
| 121 to 123 | CC(C)OC1CCCC(C2NC(=O)C2C(C)O[Si](C)(C)C(C)(C)C)C1O (stereo unspecified) |
| 222 to 223 | CC(=S)NC[C@H]1CN(c2ccc(N3CCN(c4nnc(C)s4)CC3)c(F)c2)C(=O)O1 |
| 226 to 228 | CN1C(=O)C(=Cc2nc(C(C)(C)C)c(O)c(C(C)(C)C)n2)SC1=S |
| 49 to 51 | COC(=O)c1ccc(OC(C)=O)c(-n2cccc2)c1 |
| 135 to 137 | O=C(O)c1csc(Oc2cccc(Cl)c2)n1 |
| 108 to 109 | COC(=O)c1cncn1C1c2ccccc2CSC1(C)C (stereo unspecified) |
| 150 | Nc1cc(O)cc(O)c1 |
| 144 to 146 | c1ccc(COc2ccc(N3c4ccccc4Sc4ccccc43)cc2)cc1 |
| 189 to 191 | COc1ccc2[nH]c3c(c2c1)C1C(=O)OC(=O)C1C(c1ccccc1Cl)C3 (stereo unspecified) |
| 174 to 175 | Cc1cc(OCC(=O)Nc2cc(C(=O)O)ccc2Cl)ccc1C(C)C |
| 231 to 234 | COC(=O)NC1=NCC(c2cc(Cl)ccc2Cl)CN1 (stereo unspecified) |
| 115 to 120 | COC(=O)c1ccccc1OCc1ccc(COc2ccccc2C(=O)OC)cc1 |
| 131 | COC(=O)CCCCc1csc(N)n1 |
| 119 to 121 | COc1ccc(C)cc1NC(=O)Nc1ccc(N2CCN(C(=O)Nc3ccc(CCO)cc3C)CC2)cc1 |
| 281 to 282 | Cc1noc2nc(-c3ccccc3)cc(O)c12 |
| 105 to 107 | CCc1cc(C)cc(C)c1NC(=S)NC(C)(C)CC |
| 84 to 86 | CCc1c(Oc2ncc(C(F)(F)F)cc2Cl)nn(C(=O)NC)c1C |

| melting point [°C] | Structure (SMILES) |
| --- | --- |
| 150 to 158 | COc1ccc(Nc2nc(NC3CCCCCC3)nc(Oc3ccccc3C#CC(C)(C)O)n2)cc1Cl |
| 179 to 182 | COCCOC(=O)c1c(F)cccc1S(=O)(=O)NC(=O)Nc1nc(OC)nc(OC)n1 |
| 126 to 127 | CCCn1c(=O)c(-c2ccccc2)c2n(c1=O)CCC(Sc1ccccc1)S2 (stereo unspecified) |
| 135 to 136 | CC(=O)N(O)Cc1ccc(OCCN(C)c2nc3ccccc3o2)cc1 |
| > 250 | CC(C)(C)Nc1nc(C#N)c(C#N)nc1N |
| 107 | c1ccc2c(c1)OC(c1ccc(OCCN3CCCCC3)cc1)c1c-2sc2ccccc12 (stereo unspecified) |
| 168 to 170 | CCC(=O)N1CCC(COc2cccc3nc(C)c(C(=O)O)c(N)c23)CC1 |
| 84 to 87 | O=C1N(CC(F)(F)F)C(=NCc2ccc(OC(F)(F)F)cc2)SCN1c1ccccc1 |
| 115 to 116 | CCOc1nn(-c2ccc(C(F)(F)F)cn2)cc1CCCOc1cc(OC)ccc1CCC(=O)O |
| 75 | Cc1cc(C)c(C2=C(OC(=O)C(C)(C)C)CN(C)C2=O)c(C)c1 |
| 147 to 150 | COc1cc(Cl)c(C(=O)c2ccc([N+](=O)[O-])cc2)c(Cl)c1 |
| 260 to 262 | Cc1cc(C)c(Cc2nc(C)nc(O)c2C)c(C)c1 |
| 149 to 150 | O=C1NCCc2c(OCCc3ccccc3)cccc21 |
| 161 to 162 | Cc1c(C)c2c(c(C)c1OCc1ccc(S(C)(=O)=O)cc1)C(c1ccc(C(C)C)cc1)C(C)(C)O2 (stereo unspecified) |
| 53 to 54 | CC(=NOCC1CC1)c1cc(Cl)ccc1NS(=O)(=O)C(F)(F)F |
| 127 to 133 | CCc1cccc(C)c1C(=O)N[C@@H](Cc1ccc(-c2c(C)n(C)c(=O)n(C)c2=O)cc1)C(=O)O |
| 168 to 169 | C[C@@H]1CN(c2ccc(S(=O)(=O)c3ccccc3)c3ccccc23)C[C@H](C)N1 |
| 148 | O=C(O)Cc1cccc(OCCCN(Cc2cccc(F)c2F)CC(c2ccccc2)c2ccccc2)c1 |
| 170 to 171 | COc1ccc2c(=O)cc(-c3cc[nH]n3)oc2c1 |
| 206 to 207 | O=C(CCc1cccc(C(F)(F)F)c1)NNC(=O)c1ccc2ncsc2c1 |
| 80 to 82 | CNC=C1C(=O)C(C)(C)OC1(C)C |
| 160 to 162 | Cn1ncnc1COc1nc2c(cc1-c1cccs1)nnn2-c1ccccc1F |
| 146 to 147 | COc1ccccc1-n1nccc1-c1nn(-c2cccc(C(F)(F)F)c2)ccc1=O |

| melting point [°C] | Structure (SMILES) |
| --- | --- |
| > 300 | Oc1nc2ccc(F)cc2nc1O |
| 116 to 121 | Cn1c(C(C)(C)C)cn(N=Cc2cccnc2)c1=O |
| 222 to 223 | CC1CC(=O)NN=C1c1ccc(NC(=O)C2CC2(C)C)cc1 (stereo unspecified) |
| 219 to 222 | CCN1C(=O)Nc2ccc(Cl)cc2C1(C#CC1(C)CC1)C(F)(F)F (stereo unspecified) |
| 260 | COc1cc(C(=O)NC2CC(C)(C)N(C)C(C)(C)C2)ccc1-c1cc2cc(Cl)c(Cl)cc2[nH]1 |
| 222 to 225 | Cc1nn(C)c2c1N=C(c1ccc(-n3c(C)nc4cnccc43)cc1)C(C)C(=O)N2C (stereo unspecified) |
| 244 to 245 | Cc1ccnn(-c2cccc(Cl)c2)c1=O |
| 210 | CCCCn1c(=S)sc2c(=N)n(NC(=O)c3ccco3)cnc21 |
| 275 to 277 | CC1(C)Cc2cc(C3=NNC(=O)C4CC34)ccc2NC1=O (stereo unspecified) |
| 87.5 to 88.5 | CS(=O)(=O)c1ccc(C2=C(c3ccc(F)c(Cl)c3)CCC2)cc1 |
| 107 to 109 | CC(C)(C)C(=O)C(Br)C(Br)C(=O)C(C)(C)C (stereo unspecified) |
| 71 to 73 | COc1cc(OC)cc(N2CCN(C(=S)Nc3nc(C)c(C)nc3OC)CC2)c1 |
| 182 to 184 | CCc1nc2c(N)nc(C)c(C)c2n1CCOCCNC(=O)N1CCOCC1 |
| 170 to 173 | Cc1noc2cc3c(cc12)C1(CO3)C(=O)N(Cc2cnccn2)c2ccccc21 (stereo unspecified) |
| 104 to 105 | O=C(O)[C@H](Cc1ccc(C(F)(F)F)cc1)[C@@H](O)c1ccoc1 (racemic) |
| 139 | NC(=O)[C@@H](N)CN(c1ccccc1)c1ncccn1 |
| 78 to 80 | NCCCCc1ccccc1C1=NNC(=O)CC1 |
| 228 to 233 | CC1(C)CC(=O)Nc2cc3nc(-c4ccc(C#N)cc4)[nH]c3cc21 |
| 167 to 169 | CCCOc1ccc(-c2cncn2-c2ccc(S(C)(=O)=O)cc2)cc1 |
| 139 to 141 | CCCCCCCC(=O)NC(=O)OCc1nc(C(C)C)c(Sc2cc(Cl)cc(Cl)c2)n1Cc1ccncc1 |
| 200 to 201 | CN(C)C(=O)Sc1nc(-c2ccccc2)cn1-c1ccc([N+](=O)[O-])cn1 |
| 197 to 198 | O=C(N[C@H](Cc1ccc(C(F)(F)F)cc1)[C@@H](O)c1ccc(F)c(F)c1)c1ccc(F)c2ccccc12 (racemic) |

| Structure (SMILES) | melting point [°C] |
| --- | --- |
| COC(=O)C1=C(C(=O)OC)C2(c3ccc(Cl)cc3)CCC1O2 (stereo unspecified) | 90 to 91 |
| C=C(C(=O)N1CCOCC1)c1cccc(-c2cc3c(cc2C)C(C)(C)CCC3(C)C)c1 | 158 to 159 |
| O=C(NCC1CC1)c1c(NC(=O)c2cc(C(F)(F)F)nn2-c2ncccc2Cl)c(Cl)cc2cn[nH]c12 | > 250 |

Reference: a melting point compilation (Tetko et al.; mined from patent text by program, amines drawn as free bases though some values may be those of a salt)
